Laboratory results reported in patent US4590063A, “Anticonvulsants” (Adria Laboratories, Inc., priority 1985, dated 1986).

What was measured:
[1] = Solubility in water and ethyl alcohol; assay type: physicochemical; details: recrystallized product
[2] = system: tonic flexion-extension convulsions; experiment: Supramaximal electroshock antagonism (suppression of convulsions induced in mice by transcranal electroshock); assay type: in vivo, Male albino ICR-swiss mice; details: Mus musculus, oral gavage, 1 hour after administration, 60 hertz, 25 milliamps, 0.2 second, read-out: Supramaximal Electroshock Antagonism Approximate ED50
Protocol: These examples illustrate the use of the compounds described in Examples 1 and 2 in suppressing convulsions induced in mice by supramaxal shock.
(§1) Male albino ICR-swiss mice fasted for 5-6 hours and weighing 20-26 grams are used in all procedures. The compounds of the Examples 1 and 2 are dissolved in water and administered in dosages of 0.01 cc per gram body weight to groups of twelve mice via oral gavage at the milligrams per kilograms per body weight in the table below. One hour after administration of the compound, the mice are given a transcranal electroshock, 60 hertz, 25 milliamps of 0.2 second duration. This stimulus is approximately 3 times the current required to produce tonic flexion-extension convulsions in 100% of the control mice tested. The animals are then observed, and the number undergoing convulsion noted. When the ED50 is bracketed (at least one dose above and one dose below), an estimate of the ED50 is calculated. The acute LD50 is determined as follows: Groups of four mice each are given selected doses of the test compound and placed in plastic cages with food and water ad lib. Twenty-four hours later, the number of dead mice is noted. When the LD50 is bracketed (at least one dose above and one below) an estimate of the LD50 is calculated. The values for Valproic acid and Dilantin are included in the table for comparison.

[3] = in vivo; details: mouse; for LD50 at 24 h: oral gavage, mice, read-out: Acute (24 hr.) Toxicity Approximate LD50; for safety ratio (LD50/ED50): po, LD50 (24 hr., mice) divided by ED50 (supramaximal electroshock), read-out: Approximate Safety Ratio LD50/ED50
Protocol: as §1

[4] = treatment of epilepsy, known drug; cited from earlier work

Structure (SMILES) | solubility in ethyl alcohol [1] | solubility in water [1] | ED50 [2] [mg/kg] | LD50 at 24 h [3] [mg/kg] | safety ratio (LD50/ED50) [3] | serious chronic side effects [4] | dosage needed to be effective relative to toxic dosage [4]
COc1cc(C(=O)NCCN(C)C)c(OC)c2ccccc12.Cl [1,4-dimethoxy-N-(2-dimethylaminoethyl)-2-naphthalene carboxamide hydrochloride] | sparingly soluble | sparingly soluble | ~45 | ~750 | ~17 |  | 
O=C1NC(=O)C(c2ccccc2)(c2ccccc2)N1 [Dilantin, phenytoin, reference compound] |  |  | ~13 | ~417 |  | megaloblastic anemia and osteomalacia | 
CCCC(CCC)C(=O)O [Valproic Acid, reference compound] |  |  | ~600 | ~1420 |  |  | very close to those which are acutely toxic
COc1cc(C(=O)NCCCN(C)C)c(OC)c2ccccc12.Cl [1,4-dimethoxy-N-(3-dimethylaminopropyl)-2-naphthalenecarboxamide hydrochloride] | sparingly soluble | sparingly soluble | ~75 | ~750 | ~10 |  | 
